Test results from BindingDB's records for doi:10.1021/cb4002552 (University of California, 2013).

target: Neutrophil gelatinase-associated lipocalin (Homo sapiens, UniProt P80188); experiment: Fluorescence quenching titrations; conditions: pH 7.4
Method: The ligand solutions (10uM siderophore, TBS with 5% (v/v) DMSO, pH 7.4) were prepared from 4mM stock solution in DMSO. The protein solution was prepared as previously reported. Small amounts of ligand solution were mixed with the protein solution and equilibrated for at least 4 min before fluorescence measurement. The data was fit to a one-to-one binding model with two parameters, Kd and fluorescence response, using the program DYNAFIT.

Neutrophil gelatinase-associated lipocalin, sequence (P80188 whole entry): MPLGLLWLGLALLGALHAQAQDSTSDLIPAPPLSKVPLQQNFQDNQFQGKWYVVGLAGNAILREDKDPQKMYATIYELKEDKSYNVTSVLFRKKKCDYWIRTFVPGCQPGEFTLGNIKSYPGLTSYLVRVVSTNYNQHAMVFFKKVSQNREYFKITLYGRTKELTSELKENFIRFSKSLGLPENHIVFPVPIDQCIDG

Row | Kd | Compound
1 | 18 nM | C[C@@H](O)[C@H](NC(=O)c1cccc(O)c1O)C(=O)NCCCN(CCCNC(=O)c1cccc(O)c1O)C(=O)[C@@H](NC(=O)c1cccc(O)c1O)[C@@H](C)O [Vibriobactin A]
2 | 12 nM | C[C@@H](O)[C@H](NC(=O)c1cccc(O)c1O)C(=O)N(CCCNC(=O)c1cccc(O)c1O)CCCNC(=O)c1cccc(O)c1O [Fluvibactin A]

Row | Compound | Kd
3 | C[C@H]1OC(c2cccc(O)c2O)=N[C@@H]1C(=O)N(CCCNC(=O)c1cccc(O)c1O)CCCNC(=O)c1cccc(O)c1O [Fluvibactin] | 34 nM
